According to patent US20230015823A1, “METHODS OF ADMINISTERING VOXELOTOR” (Global Blood Therapeutics, Inc., priority 2019, published 2023):
Values after ≈ are worked out from the molar mass of the structure shown. “Also recorded” adds a separate entry of the source.

What was measured:
[1] = target: T1, CYP2C19 (Homo sapiens, UniProt P33261); test: Effect of voxelotor on PK of CYP2C19 probe substrate omeprazole in healthy subjects; format: in vivo
T1 construct: endogenous in cells; host or cells: healthy subjects, in vivo
T1 sequence (P33261 whole entry): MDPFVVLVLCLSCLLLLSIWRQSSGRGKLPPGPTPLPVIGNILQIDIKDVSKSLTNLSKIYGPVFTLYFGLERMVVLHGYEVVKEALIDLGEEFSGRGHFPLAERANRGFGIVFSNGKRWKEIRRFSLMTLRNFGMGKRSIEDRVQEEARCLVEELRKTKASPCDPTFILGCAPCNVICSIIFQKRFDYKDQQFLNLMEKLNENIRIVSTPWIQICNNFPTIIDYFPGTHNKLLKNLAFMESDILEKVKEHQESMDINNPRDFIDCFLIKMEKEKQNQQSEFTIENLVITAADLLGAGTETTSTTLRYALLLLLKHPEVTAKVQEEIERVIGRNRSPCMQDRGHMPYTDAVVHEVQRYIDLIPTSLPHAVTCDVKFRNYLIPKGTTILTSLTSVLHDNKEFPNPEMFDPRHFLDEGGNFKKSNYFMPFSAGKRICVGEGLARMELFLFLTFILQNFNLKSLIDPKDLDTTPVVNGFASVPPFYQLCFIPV
Description: During Period 1, subjects received a single dose of caffeine 100 mg, warfarin sodium 10 mg+vitamin K 10 mg, omeprazole 20 mg, and midazolam hydrochloride 2 mg on Day 1. During Period 2, subjects received voxelotor 900 mg QD on Days 1 and 2 followed by 600 mg QD on Day 3, a single dose of caffeine 100 mg, warfarin sodium 10 mg+vitamin K 10 mg, omeprazole 20 mg, and midazolam hydrochloride 2 mg on Day 4, and voxelotor 600 mg QD on Days 4 through 7.
Whole blood and plasma concentrations of voxelotor and plasma concentrations of caffeine, paraxanthine, S-warfarin, omeprazole, 5-hydroxyomeprazole, midazolam, and 1-hydroxymidazolam were determined using validated assays.

[2] = system: sickle cell disease (SCD) patients; test: HOPE trial: efficacy in sickle cell disease; format: in vivo, human
Description: The efficacy and safety of OXBRYTA in sickle cell disease (SCD) was evaluated in HOPE, a randomized, double-blind, placebo-controlled, multicenter trial [NCT 03036813]. In this study, 274 patients were randomized to daily oral administration of OXBRYTA 1,500 mg (N=90), OXBRYTA 900 mg (N=92), or placebo (N=92). Patients were included if they had from 1 to 10 vasoocclusive crisis (VOC) events within 12 months prior to enrollment and baseline hemoglobin (Hb) ≥5.5 to ≤10.5 g/dL. Eligible patients on stable doses of hydroxyurea for at least 90 days were allowed to continue hydroxyurea therapy throughout the study. Randomization was stratified by patients already receiving hydroxyurea (yes, no), geographic region (North America, Europe, Other), and age (12 to <17 years, 18 to 65 years). The trial excluded patients who received red blood cell (RBC) transfusions within 60 days and erythropoietin within 28 days of enrollment, had renal insufficiency, uncontrolled liver disease, were pregnant, or lactating.
The majority of patients had HbSS or HbS/beta^0-thalassemia genotype (90%) and were receiving background hydroxyurea therapy (65%). The median age was 24 years (range: 12 to 64 years); 46 (17%) patients were 12 to <17 years of age. Median baseline Hb was 8.5 g/dL (5.9 to 10.8 g/dL). One hundred and fifteen (42%) had 1 VOC event and 159 (58%) had 2 to 10 events within 12 months prior to enrollment.
Efficacy was based on Hb response rate defined as a Hb increase of >1 g/dL from baseline to Week 24 in patients treated with OXBRYTA 1,500 mg versus placebo. […] No outlier subgroups were observed. The distribution of Hb change from baseline for individual patients completing 24 weeks of treatment with OXBRYTA 1,500 mg or placebo is depicted in FIG. 8.
Additional efficacy evaluation included change in Hb and percent change in indirect bilirubin and percent reticulocyte count from baseline to Week 24 (Table 4).

[3] = system: pregnant rats; test: Embryo-fetal development study in pregnant rats; format: in vivo, rat
Description: (§1) In embryo-fetal development studies, voxelotor was administered orally to pregnant rats at 15, 50, and 250 mg/kg/day (gestation days 7 through 17) and rabbits at 25, 75, and 150 mg/kg/day (gestation days 7 through 19) through organogenesis.

[4] = system: pregnant rabbits; test: Embryo-fetal development study in pregnant rabbits; format: in vivo, rabbit
Description: as §1

[5] = Voxelotor in milk of lactating rats; format: in vivo, rat
Text: There are no data on the presence of voxelotor in human milk, the effects on the breastfed child, or the effects on milk production. […] Plasma concentrations of voxelotor in pregnant rats were higher than the concentration in milk. When a drug is present in animal milk, it is likely that the drug will be present in human milk. […] Because of the potential for serious adverse reactions in the breastfed child, including changes in the hematopoietic system, advise patients that breastfeeding is not recommended during treatment with OXBRYTA, and for at least 2 weeks after the last dose.

[6] = Drug substance properties (solubility, hygroscopicity); format: physicochemical; details: crystalline Form II free base
Text: Voxelotor, the active drug substance, is a white-to-yellow-to-beige compound in crystalline Form II of its free base. It is non-hygroscopic.

[7] = system: Hb; test: Pharmacodynamics: Hb oxygen affinity (p50) and clinical measures of hemolysis; format: in vivo
[8] = Protein binding in vitro; format: in vitro ADME
Text: Voxelotor apparent volume of distribution of the central compartment and peripheral compartment are 338 L and 72.2 L in plasma, respectively. Protein binding is 99.8% in vitro. The blood-to-plasma ratio is approximately 15:1 in patients with SCD.

[9] = target: CYP3A4 (Homo sapiens, UniProt P08684); test: Metabolism (in vitro and in vivo studies); format: in vitro ADME; details: minor contribution from CYP2C19, CYP2B6 and CYP2C9
Chain of CYP3A4 (P08684 whole entry): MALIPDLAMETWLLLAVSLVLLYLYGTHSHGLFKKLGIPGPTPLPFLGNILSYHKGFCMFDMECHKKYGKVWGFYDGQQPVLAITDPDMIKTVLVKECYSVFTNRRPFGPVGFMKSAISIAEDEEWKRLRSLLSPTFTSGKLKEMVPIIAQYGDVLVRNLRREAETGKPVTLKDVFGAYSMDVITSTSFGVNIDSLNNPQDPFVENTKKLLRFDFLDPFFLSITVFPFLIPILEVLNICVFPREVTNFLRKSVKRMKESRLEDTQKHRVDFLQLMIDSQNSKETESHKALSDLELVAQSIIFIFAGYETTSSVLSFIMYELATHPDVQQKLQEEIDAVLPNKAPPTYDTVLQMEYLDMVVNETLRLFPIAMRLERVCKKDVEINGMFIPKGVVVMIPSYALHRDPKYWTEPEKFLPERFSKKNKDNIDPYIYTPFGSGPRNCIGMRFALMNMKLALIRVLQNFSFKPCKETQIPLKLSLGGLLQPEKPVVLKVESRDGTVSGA
Text: In vitro and in vivo studies indicate that voxelotor is extensively metabolized through Phase I (oxidation and reduction), Phase II (glucuronidation) and combinations of Phase I and II metabolism.

[10] = Effect of acid reducing agent omeprazole on voxelotor; details: in vivo
[11] = target: P-gp (Homo sapiens, UniProt P08183); test: In vitro transporter studies: P-gp; format: in vitro ADME
Chain of P-gp (P08183 whole entry): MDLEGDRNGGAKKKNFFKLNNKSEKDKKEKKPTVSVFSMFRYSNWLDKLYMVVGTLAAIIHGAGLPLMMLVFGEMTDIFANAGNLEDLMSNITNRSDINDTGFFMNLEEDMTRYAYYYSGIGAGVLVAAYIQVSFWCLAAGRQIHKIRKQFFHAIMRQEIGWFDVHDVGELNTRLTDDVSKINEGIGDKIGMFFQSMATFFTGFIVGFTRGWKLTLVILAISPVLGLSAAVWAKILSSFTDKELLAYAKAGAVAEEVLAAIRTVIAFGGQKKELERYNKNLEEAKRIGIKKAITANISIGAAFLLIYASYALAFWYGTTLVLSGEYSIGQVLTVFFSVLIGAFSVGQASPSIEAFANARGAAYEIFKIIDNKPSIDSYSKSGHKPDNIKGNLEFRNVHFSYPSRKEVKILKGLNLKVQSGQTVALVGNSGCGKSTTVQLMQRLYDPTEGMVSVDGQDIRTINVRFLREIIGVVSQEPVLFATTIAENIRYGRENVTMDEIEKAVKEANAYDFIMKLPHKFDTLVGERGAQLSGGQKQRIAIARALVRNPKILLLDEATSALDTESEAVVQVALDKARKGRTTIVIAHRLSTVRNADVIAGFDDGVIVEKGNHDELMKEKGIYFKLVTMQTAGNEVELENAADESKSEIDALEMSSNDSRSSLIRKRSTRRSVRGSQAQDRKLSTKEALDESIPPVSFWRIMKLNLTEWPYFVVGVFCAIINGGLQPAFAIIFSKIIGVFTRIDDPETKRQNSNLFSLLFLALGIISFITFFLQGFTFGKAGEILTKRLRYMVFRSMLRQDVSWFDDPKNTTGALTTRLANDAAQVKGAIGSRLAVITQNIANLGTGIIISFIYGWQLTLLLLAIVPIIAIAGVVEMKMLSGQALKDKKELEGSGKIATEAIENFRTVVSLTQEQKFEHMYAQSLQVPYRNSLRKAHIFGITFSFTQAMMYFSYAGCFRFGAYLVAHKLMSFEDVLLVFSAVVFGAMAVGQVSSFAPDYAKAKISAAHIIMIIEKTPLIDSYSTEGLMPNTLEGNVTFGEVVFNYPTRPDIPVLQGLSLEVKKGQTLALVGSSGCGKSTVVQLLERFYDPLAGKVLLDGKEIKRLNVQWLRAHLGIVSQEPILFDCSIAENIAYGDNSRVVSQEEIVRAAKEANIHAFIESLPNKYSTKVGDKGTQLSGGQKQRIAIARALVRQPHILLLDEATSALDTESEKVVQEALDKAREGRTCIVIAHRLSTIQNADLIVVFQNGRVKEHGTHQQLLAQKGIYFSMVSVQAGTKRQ

[12] = system: rats; test: Fertility and early embryonic development study; format: in vivo, rat
Description: In a fertility and early embryonic development study, voxelotor was administered orally to rats at 15, 50, and 250 mg/kg/day. Males were dosed 28 days prior to mating through cohabitation and females were dosed 14 days prior to mating through gestation Day 7.

[13] = target: CYP2C8 (Homo sapiens, UniProt P10632)
Chain of CYP2C8 (P10632 whole entry): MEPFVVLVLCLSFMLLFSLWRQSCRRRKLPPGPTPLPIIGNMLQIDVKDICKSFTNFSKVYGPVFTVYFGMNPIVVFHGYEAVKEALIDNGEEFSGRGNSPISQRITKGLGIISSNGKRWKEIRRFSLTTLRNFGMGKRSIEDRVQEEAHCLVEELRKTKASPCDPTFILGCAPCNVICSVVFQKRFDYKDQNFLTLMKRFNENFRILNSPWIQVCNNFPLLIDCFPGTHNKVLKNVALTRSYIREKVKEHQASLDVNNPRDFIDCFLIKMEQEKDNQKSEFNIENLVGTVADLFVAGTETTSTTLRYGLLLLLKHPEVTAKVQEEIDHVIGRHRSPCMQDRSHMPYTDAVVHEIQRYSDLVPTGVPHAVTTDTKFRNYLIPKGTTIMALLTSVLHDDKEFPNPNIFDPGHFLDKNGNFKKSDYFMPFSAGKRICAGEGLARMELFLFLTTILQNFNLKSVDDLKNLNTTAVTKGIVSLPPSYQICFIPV

CC(C)n1nccc1-c1ncccc1COc1cccc(O)c1C=O [voxelotor, 2-hydroxy-6-((2-(1-isopropyl-1H-pyrazol-5-yl)pyridin-3-yl)methoxy)benzaldehyde]
effect of voxelotor on PK of CYP2C19 probe substrate (omeprazole) ([1]; healthy subjects, multiple doses of voxelotor 900/600 mg QD): no clinically meaningful effect
inhibition of CYP2C19 in vivo ([1]; human, in vivo): not
Hemoglobin, adjusted mean change from baseline to Week 24 ([2]; 1,500 mg QD (N = 90)): 1.14 g/dL
Indirect Bilirubin, adjusted mean percent change from baseline to Week 24 ([2]; 1,500 mg QD (N = 90)): −29.08%
Percent Reticulocyte Count, adjusted mean percent change from baseline to Week 24 ([2]; 1,500 mg QD (N = 90)): −19.93%
Hb response rate (Hb increase of >1 g/dL from baseline to Week 24) ([2]; 1,500 mg daily oral, 46/90, placebo 6.5%): 51.1%
adverse developmental outcomes ([3]; pregnant rats, oral 15, 50, 250 mg/kg/day, gestation days 7 through 17): no adverse developmental effects; also recorded: no evidence of adverse developmental outcomes
exposure at highest dose level (maternal toxicity observed) relative to exposure in patients at the recommended daily dose ([3]; rats, 250 mg/kg/day): 2.8 times
adverse developmental outcomes ([4]; pregnant rabbits, oral 25, 75, 150 mg/kg/day, gestation days 7 through 19): no adverse developmental effects; also recorded: no evidence of adverse developmental outcomes
exposure at highest dose level (maternal toxicity observed) relative to exposure in patients at the recommended daily dose ([4]; rabbits, 150 mg/kg/day): 0.3 times
presence in milk [5]: detected in milk
hygroscopicity [6]: non-hygroscopic
solubility in common organic solvents such as acetone and toluene [6]: highly soluble
solubility ([6]; water): ~30 µg/mL (≈ 88.9 µM)
clinical measures of hemolysis (indirect bilirubin and % reticulocytes) ([7]; in vivo): dose-dependent reduction
Hb oxygen affinity as determined by the change in p50 ([7]; linearly correlated with voxelotor exposure): dose-dependent increase in Hb oxygen affinity
fraction unbound [8]: 0.002
enzymes mediating oxidation of voxelotor [9]: mediated primarily by CYP3A4
effect of co-administered omeprazole (proton pump inhibitor) on voxelotor exposure [10]: did not alter voxelotor exposure
inhibition of P-gp [11]: not an inhibitor
substrate of P-gp [11]: not a substrate
exposure at 250 mg/kg/day relative to human exposure at 1,500 mg/day [12]: approximately 5 times
sperm motility ([12]; 250 mg/kg/day, changes in sperm morphology also occurred): decreased
effect on fertility or reproductive function ([12]; oral 15, 50, 250 mg/kg/day): no effect on fertility or reproductive function
inhibition of CYP2C8 in vivo [13]: not
